Series [1] in a line: Acute oral toxicity (MTD) in Swiss albino mice. The format is in vivo. Particulars: for clinical signs of toxicity: oral, 1000 mg/kg (high dose), mono hydrochloride, 1000 mg/kg.
Experimental: 20 male and 20 female Swiss albino mice were randomly divided into four groups (G1-G4). Each group was 5 male and 5 female Swiss albino mice. […] G1 was treated with placebo and served as a control. […] The mid dose group animals (G3-treated with 500 mg/kg b.wt) were administered the dose formulation twice with a gap of approximately 1 hour. Animals from high dose group (G4-treated with 1000 mg/kg b.wt) received the dose formulation four times with a gap of approximately one hour.
Another series addresses T1, PRKCD (Homo sapiens, UniProt Q05655).
T1 construct: purchased Ambit Biosciences Corp (KinomeScan); host or cells: E. coli host derived from BL21, infected with T7 phage
In words: KinomeScan kinase profiling. The format is binding.

The target of the next series is T2, CDK2 (Homo sapiens, UniProt P24941).
T2 construct: host or cells: T7 phage in E. coli (BL21-derived)
Kind of series: KinomeScan kinase profiling. Format: binding.

Another series addresses T3, PDPK1 (Homo sapiens, UniProt O15530).
T3 construct: host or cells: E. coli host derived from the BL21 strain, infected with T7 phage
In words: KinomeScan kinase profiling. Format: binding.

In a further series the target is T4, AKT1 (Homo sapiens, UniProt P31749).
T4 construct: host or cells: E. coli host derived from BL21 (T7 phage lysate)
In words: KinomeScan kinase profiling. The format is binding.

The next series deals with T5, PKAC-alpha (Homo sapiens, UniProt P17612).
T5 construct: purchased Ambit Biosciences Corp (KinomeScan); host or cells: E. coli host derived from BL21, infected with T7 phage
In words: KinomeScan kinase profiling. The format is binding.

Another series has as its target T6, MAPKAPK2 (Homo sapiens, UniProt P49137).
T6 construct: host or cells: E. coli derived from BL21, infected with T7 phage
Kind of series: KinomeScan kinase profiling. Format: binding.

The target in a further series is T7, ACVR1B (Homo sapiens, UniProt P36896).
T7 construct: host or cells: E. coli host derived from BL21 (T7 phage lysate)
In words: KinomeScan kinase profiling. The format is binding.

The next series addresses T8, SRPK1 (Homo sapiens, UniProt Q96SB4).
T8 construct: host or cells: E. coli host derived from the BL21 strain, T7 phage lysate
In words: KinomeScan kinase profiling. Format: binding.

The target of a further series is T9, MAPKAPK5 (Homo sapiens, UniProt Q8IW41).
T9 construct: host or cells: E. coli derived from BL21, infected with T7 phage
In words: KinomeScan kinase profiling. Format: binding. In outline:
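Kinases were expressed as T7 phage fusions in a BL21-derived E. coli host and the cleared lysates were used. Ligand beads were blocked with biotin and buffer (1% BSA, 0.05% Tween 20, 1 mM DTT). Compounds came from 40× DMSO stocks, and phage in the eluates was titred by qPCR.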

Another series concerns the target T10, MEK6 (Homo sapiens, UniProt P52564).
T10 construct: host or cells: E. coli derived from BL21, infected with T7 phage
Kind of series: KinomeScan kinase profiling. The format is binding.

In the next series the target is T11, ERK2 (Homo sapiens, UniProt P28482).
T11 construct: host or cells: E. coli host derived from BL21, T7 phage lysate
In words: KinomeScan kinase profiling. Format: binding.

In series [2] the target is T12, RPS6KA2 (Kin.Dom.-1-N-terminal) (Homo sapiens, UniProt Q15349).
T12 construct: RPS6KA2 (Kin.Dom.-1-N-terminal); host or cells: E. coli host derived from BL21, T7 phage lysate
Kind of series: KinomeScan kinase profiling. The format is binding.

The target in another series is T13, TGFBR1 (Homo sapiens, UniProt P36897).
T13 construct: host or cells: E. coli host derived from the BL21 strain, T7 phage lysate
Kind of series: KinomeScan kinase profiling. Format: binding.

The target in a further series is T14, EPHA2 (Homo sapiens, UniProt P29317).
T14 construct: host or cells: E. coli host derived from BL21, T7 phage lysate
In words: KinomeScan kinase profiling. The format is binding.

The target in a further series is T15, CDK9 (Homo sapiens, UniProt P50750).
T15 construct: host or cells: T7 phage in E. coli (BL21-derived)
In words: KinomeScan kinase profiling. Format: binding.

The target of a further series is T16, FGFR1 (Homo sapiens, UniProt P11362).
T16 construct: host or cells: E. coli host derived from BL21, infected with T7 phage
In words: KinomeScan kinase profiling. The format is binding.

The next series deals with T17, YES (Homo sapiens, UniProt P07947).
T17 construct: purchased Ambit Biosciences Corp (KinomeScan); host or cells: E. coli host derived from the BL21 strain (T7 phage lysate)
In words: KinomeScan kinase profiling. The format is binding.

The next series addresses T18, CHEK1 (Homo sapiens, UniProt O14757).
T18 construct: host or cells: T7 phage in E. coli (BL21-derived)
In words: KinomeScan kinase profiling. The format is binding.

The target of a further series is T19, CAMK2B (Homo sapiens, UniProt Q13554).
T19 construct: purchased Ambit Biosciences Corp (KinomeScan); host or cells: E. coli host derived from the BL21 strain, T7 phage
In words: KinomeScan kinase profiling. Format: binding.

A further series deals with T20, DCAMKL1 (Homo sapiens, UniProt O15075).
T20 construct: purchased Ambit Biosciences Corp (KinomeScan); host or cells: T7 phage in E. coli host derived from BL21
Kind of series: KinomeScan kinase profiling. The format is binding.

Results on two molecules are retold here after patent publication US9050341B2, “Methods of treating drug resistant and other tumors by administering 6,7-dialkoxy quinazoline derivatives” (NATCO PHARMA LIMITED, priority 2009, dated 2015).

T19 sequence (Q13554 whole entry): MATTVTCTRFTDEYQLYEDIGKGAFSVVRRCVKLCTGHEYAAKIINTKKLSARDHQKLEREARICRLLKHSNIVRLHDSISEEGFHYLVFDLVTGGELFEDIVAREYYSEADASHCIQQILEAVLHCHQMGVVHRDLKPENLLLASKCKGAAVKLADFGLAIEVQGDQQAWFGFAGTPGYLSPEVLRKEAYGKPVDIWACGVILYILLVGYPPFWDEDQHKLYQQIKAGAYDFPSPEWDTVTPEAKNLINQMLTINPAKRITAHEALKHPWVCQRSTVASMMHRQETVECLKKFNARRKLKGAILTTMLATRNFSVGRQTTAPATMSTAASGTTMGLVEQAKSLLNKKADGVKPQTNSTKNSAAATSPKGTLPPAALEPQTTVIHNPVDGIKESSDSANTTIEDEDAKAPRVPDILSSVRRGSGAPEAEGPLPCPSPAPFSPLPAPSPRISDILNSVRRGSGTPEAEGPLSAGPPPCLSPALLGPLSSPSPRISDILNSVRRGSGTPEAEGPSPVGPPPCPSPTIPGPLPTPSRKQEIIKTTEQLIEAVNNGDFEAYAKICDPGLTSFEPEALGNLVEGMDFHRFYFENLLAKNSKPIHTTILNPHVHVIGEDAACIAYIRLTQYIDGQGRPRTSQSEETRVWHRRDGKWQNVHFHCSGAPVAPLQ
T15 sequence (P50750 whole entry): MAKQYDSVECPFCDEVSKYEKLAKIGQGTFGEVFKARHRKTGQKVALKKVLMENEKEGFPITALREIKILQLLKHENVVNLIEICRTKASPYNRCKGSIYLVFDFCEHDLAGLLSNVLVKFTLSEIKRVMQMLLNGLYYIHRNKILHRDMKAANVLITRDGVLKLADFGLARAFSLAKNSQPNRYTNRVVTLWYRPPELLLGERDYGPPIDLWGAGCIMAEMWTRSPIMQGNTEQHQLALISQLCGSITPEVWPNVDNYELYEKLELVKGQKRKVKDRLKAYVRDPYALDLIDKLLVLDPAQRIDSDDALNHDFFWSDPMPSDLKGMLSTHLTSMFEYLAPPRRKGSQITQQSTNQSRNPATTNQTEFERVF
T13 sequence (P36897 34-503): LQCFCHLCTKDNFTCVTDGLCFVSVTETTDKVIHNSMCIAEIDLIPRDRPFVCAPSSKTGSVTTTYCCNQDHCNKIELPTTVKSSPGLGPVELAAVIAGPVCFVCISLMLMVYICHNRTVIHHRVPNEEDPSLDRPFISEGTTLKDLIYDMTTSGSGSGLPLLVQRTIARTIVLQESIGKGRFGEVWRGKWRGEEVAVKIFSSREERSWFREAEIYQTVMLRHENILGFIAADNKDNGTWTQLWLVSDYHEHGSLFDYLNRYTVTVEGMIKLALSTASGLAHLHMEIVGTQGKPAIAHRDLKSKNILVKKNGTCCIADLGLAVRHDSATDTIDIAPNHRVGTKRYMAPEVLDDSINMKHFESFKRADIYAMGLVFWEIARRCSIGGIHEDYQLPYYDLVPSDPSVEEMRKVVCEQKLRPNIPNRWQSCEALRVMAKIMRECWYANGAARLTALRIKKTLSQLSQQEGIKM
T11 sequence (P28482 whole entry): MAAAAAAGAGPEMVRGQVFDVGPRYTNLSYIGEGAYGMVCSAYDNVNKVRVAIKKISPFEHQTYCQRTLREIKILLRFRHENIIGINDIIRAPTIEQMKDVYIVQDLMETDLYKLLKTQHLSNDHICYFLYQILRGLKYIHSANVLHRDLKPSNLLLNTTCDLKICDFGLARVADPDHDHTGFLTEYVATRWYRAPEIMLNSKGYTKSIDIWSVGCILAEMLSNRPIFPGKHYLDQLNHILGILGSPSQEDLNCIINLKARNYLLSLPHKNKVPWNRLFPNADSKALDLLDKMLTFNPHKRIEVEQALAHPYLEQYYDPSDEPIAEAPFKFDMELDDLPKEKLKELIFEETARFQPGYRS
T8 sequence (Q96SB4 whole entry): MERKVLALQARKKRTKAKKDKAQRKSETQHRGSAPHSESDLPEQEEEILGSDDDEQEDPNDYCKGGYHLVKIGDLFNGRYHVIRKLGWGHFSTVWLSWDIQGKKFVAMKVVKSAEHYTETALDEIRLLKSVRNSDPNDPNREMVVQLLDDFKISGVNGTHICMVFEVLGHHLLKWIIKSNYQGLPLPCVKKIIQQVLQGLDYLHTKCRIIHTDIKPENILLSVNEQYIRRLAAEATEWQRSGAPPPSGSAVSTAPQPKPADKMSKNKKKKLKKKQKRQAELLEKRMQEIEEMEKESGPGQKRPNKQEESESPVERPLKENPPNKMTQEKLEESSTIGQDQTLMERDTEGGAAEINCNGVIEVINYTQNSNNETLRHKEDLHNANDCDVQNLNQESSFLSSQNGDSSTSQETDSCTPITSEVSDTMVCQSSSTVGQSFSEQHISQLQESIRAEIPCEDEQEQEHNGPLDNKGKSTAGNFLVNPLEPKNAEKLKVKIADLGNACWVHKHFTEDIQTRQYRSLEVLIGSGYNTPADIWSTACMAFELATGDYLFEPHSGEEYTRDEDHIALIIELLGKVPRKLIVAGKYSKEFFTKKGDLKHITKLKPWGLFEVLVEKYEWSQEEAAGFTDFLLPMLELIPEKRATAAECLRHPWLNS
T17 sequence (P07947 whole entry): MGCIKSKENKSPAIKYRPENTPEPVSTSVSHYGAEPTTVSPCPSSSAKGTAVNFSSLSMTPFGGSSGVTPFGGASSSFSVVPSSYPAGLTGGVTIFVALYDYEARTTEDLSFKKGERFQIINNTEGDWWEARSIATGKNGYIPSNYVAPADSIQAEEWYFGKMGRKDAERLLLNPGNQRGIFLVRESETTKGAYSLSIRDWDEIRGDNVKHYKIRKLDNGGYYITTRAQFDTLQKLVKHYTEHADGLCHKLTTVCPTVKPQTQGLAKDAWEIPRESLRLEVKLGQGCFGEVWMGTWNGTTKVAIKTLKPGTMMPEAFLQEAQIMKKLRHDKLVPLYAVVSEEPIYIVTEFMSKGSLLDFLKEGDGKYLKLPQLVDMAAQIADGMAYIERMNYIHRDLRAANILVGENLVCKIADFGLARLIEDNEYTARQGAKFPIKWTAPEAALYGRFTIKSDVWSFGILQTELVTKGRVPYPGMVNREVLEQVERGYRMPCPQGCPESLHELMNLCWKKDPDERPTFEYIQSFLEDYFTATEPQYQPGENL
T7 sequence (P36896 24-505): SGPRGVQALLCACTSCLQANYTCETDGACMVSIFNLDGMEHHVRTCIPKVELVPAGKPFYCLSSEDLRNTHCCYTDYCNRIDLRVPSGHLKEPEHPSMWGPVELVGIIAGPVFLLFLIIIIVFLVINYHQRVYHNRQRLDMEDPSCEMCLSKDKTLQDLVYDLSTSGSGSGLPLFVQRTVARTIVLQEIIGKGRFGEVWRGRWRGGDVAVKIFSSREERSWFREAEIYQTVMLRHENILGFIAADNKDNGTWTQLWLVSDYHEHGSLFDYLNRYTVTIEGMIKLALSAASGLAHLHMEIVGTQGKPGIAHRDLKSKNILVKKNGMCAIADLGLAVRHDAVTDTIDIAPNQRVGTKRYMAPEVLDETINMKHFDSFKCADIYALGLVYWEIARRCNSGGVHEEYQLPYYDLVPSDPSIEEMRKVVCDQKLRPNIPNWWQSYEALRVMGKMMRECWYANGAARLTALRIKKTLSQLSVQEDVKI
T20 sequence (O15075 whole entry): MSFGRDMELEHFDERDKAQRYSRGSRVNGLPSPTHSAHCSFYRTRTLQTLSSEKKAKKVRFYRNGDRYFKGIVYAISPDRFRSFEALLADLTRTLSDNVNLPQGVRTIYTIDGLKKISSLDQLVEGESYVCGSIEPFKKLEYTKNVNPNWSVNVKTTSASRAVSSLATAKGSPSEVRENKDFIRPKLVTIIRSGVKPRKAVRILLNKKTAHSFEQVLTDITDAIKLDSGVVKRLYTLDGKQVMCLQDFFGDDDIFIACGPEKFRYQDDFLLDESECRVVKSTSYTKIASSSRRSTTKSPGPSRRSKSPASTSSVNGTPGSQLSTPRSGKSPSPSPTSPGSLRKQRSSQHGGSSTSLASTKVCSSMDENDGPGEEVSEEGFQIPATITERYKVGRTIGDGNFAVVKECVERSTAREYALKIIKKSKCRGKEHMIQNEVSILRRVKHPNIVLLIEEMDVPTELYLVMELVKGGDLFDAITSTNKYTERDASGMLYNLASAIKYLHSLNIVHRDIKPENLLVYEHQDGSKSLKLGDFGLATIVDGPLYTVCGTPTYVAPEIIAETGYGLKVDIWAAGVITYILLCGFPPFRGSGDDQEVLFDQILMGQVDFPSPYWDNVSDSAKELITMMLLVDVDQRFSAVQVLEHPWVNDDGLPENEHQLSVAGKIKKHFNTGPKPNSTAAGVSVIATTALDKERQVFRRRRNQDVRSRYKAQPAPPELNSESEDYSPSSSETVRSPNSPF
T10 sequence (P52564 whole entry): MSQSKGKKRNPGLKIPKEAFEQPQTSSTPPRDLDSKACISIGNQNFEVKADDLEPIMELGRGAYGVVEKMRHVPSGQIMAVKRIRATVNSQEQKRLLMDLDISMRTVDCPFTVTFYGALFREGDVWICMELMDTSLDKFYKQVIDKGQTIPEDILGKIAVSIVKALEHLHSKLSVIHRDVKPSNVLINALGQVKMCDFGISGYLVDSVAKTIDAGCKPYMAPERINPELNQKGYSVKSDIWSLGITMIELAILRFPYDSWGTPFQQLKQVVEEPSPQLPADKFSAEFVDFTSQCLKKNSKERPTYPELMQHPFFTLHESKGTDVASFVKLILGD
T12 sequence (Q15349 59-318 limits assumed): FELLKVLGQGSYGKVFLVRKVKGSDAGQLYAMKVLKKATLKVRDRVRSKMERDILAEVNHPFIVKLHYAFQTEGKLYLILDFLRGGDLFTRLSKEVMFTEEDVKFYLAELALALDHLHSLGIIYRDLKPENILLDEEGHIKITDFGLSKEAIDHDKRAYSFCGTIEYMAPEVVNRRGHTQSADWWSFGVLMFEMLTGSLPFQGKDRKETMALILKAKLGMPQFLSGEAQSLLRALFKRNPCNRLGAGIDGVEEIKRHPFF

Turning to `C#Cc1cccc(Nc2ncnc3cc(OC)c(OCCCN4CCOCC4)cc23)c1.Cl` [NRC-2694 monohydrochloride, N-(3-ethylnylphenyl)-7-methoxy-6-[3-(4-morpholinyl)propoxy]-4-quinazolinamine mono hydrochloride], the “maximum tolerated dose (MTD)” value in series [1] (acute oral gavage, Swiss albino mice) is given as 1000 mg/kg body weight. Further, the gross pathological examination result in series [1] (mice, after day 14) is given as “did not reveal any lesions of pathological significance”. Besides, the “mean body weight and percent body weight” value in series [1] (mice, compared with control groups) is “No significant alterations”. Further, in series [1] (mice, oral gavage, 250 mg/kg body weight (low dose) and 500 mg/kg (mid dose)), the “toxic signs or mortality” value is “did not produce any toxic signs or mortality”. Moreover, the “clinical signs of toxicity” value is “signs of lethargy and piloerection in all animals without any mortality” in series [1] (mice, listed as NRC-2694A blend); “mild lethargy and piloerection” in series [1] (mice). The mortality result in [1] (mice, oral, 250, 500 and 1000 mg/kg, 14 days observation) is given as “No mortality”.
As to `C#Cc1cccc(Nc2ncnc3cc(OC)c(OCCCN4CCOCC4)cc23)c1` [NRC-2694, N-(3-ethylnylphenyl)-7-methoxy-6-[3-(4-morpholinyl)propoxy]-4-quinazolinamine], the “% Ctrl @ 10000 nM” value at PRKCD came out at 84 % Ctrl; at CDK2 it was 94 % Ctrl; at PDPK1, 94 % Ctrl; at AKT1, 100 % Ctrl; at PKAC-alpha it was 100 % Ctrl; at MAPKAPK2 it was 90 % Ctrl. The “% Ctrl @ 10000 nM” value worked out at 63 % Ctrl at ACVR1B; 40 % Ctrl at SRPK1; 79 % Ctrl at MAPKAPK5; 75 % Ctrl on MEK6; 100 % Ctrl at ERK2; 70 % Ctrl in series [2]. Also, the “% Ctrl @ 10000 nM” value at TGFBR1 is 83 % Ctrl; at EPHA2, 100 % Ctrl; at CDK9, 86 % Ctrl; on FGFR1, 64 % Ctrl; on YES it was 41 % Ctrl; on CHEK1 it was 42 % Ctrl. The results for the “% Ctrl @ 10000 nM” value at CAMK2B and at DCAMKL1 were 77 % Ctrl and 92 % Ctrl, respectively.
